Test results published in ChEMBL document CHEMBL4602738, “Looking toward the Rim of the Active Site Cavity of Druggable Human Carbonic Anhydrase Isoforms” (ACS Med Chem Lett, 2020).

Key:
Carbonic anhydrase 9 = Carbonic anhydrase 9 (Homo sapiens, UniProt Q16790)
Description: Inhibition of human CA9 preincubated for 15 mins by stopped-flow carbon dioxide hydration assay

Carbonic anhydrase 2 = Carbonic anhydrase 2 (Homo sapiens, UniProt P00918); assay: Inhibition of human CA2 preincubated for 15 mins by stopped-flow carbon dioxide hydration assay

Row | Ki (Carbonic anhydrase 9) [nM] | Ki (Carbonic anhydrase 2) [nM] | Structure (SMILES)
1 | 19.1 | 4.1 | Nc1ccccc1C(=O)N1CCN(C(=O)c2ccc(S(N)(=O)=O)cc2)CC1
2 | 250 | 19.8 | COc1ccccc1C(=O)N1CCN(C(=O)c2ccc(S(N)(=O)=O)cc2)CC1
3 | 37.1 |  | NS(=O)(=O)c1ccc(C(=O)N2CCN(C(=O)c3ccccc3)CC2)cc1
4 | 68.7 | 28.4 | NS(=O)(=O)c1ccc(C(=O)N2CCN(C(=O)c3ccccc3F)CC2)cc1
5 | 60.4 | 3 | NS(=O)(=O)c1ccc(C(=O)N2CCN(C(=O)c3ccccc3Br)CC2)cc1
6 | 9.8 | 42.4 | NS(=O)(=O)c1ccc(C(=O)N2CCN(C(=O)c3ccccc3[N+](=O)[O-])CC2)cc1

More lines, now with the values behind:

Row | Structure (SMILES) | Ki (Carbonic anhydrase 9) [nM] | Ki (Carbonic anhydrase 2) [nM]
7 | NS(=O)(=O)c1ccc(C(=O)N2CCN(C(=O)c3ccccc3Cl)CC2)cc1 | 62.2 | 
8 | NS(=O)(=O)c1ccc(C(=O)N2CCN(C(=O)c3cccc(Cl)c3)CC2)cc1 | 54.4 | 22.5
9 | COc1cccc(C(=O)N2CCN(C(=O)c3ccc(S(N)(=O)=O)cc3)CC2)c1 | 360 | 36.3
10 | NS(=O)(=O)c1ccc(C(=O)N2CCN(C(=O)c3ccc([N+](=O)[O-])cc3)CC2)cc1 | 11.2 | 23.9
11 | NS(=O)(=O)c1ccc(C(=O)N2CCN(C(=O)c3ccc(F)cc3)CC2)cc1 | 332 | 32.4
12 | Nc1ccc(C(=O)N2CCN(C(=O)c3ccc(S(N)(=O)=O)cc3)CC2)cc1 | 14.3 | 78.8
13 | NS(=O)(=O)c1ccc(C(=O)N2CCN(C(=O)c3ccc(Cl)cc3)CC2)cc1 | 29.2 | 7.2
14 | NS(=O)(=O)c1ccc(C(=O)N2CCN(C(=O)c3cccc([N+](=O)[O-])c3)CC2)cc1 | 2.2 | 28.6
15 | NS(=O)(=O)c1ccc(C(=O)N2CCN(C(=O)c3cccc(Br)c3)CC2)cc1 | 16.2 | 0.6
16 | NS(=O)(=O)c1ccc(C(=O)N2CCN(C(=O)c3ccc(Br)cc3)CC2)cc1 | 8 | 4.4
17 | Nc1cccc(C(=O)N2CCN(C(=O)c3ccc(S(N)(=O)=O)cc3)CC2)c1 | 15.2 | 51.1
18 | NS(=O)(=O)c1ccc(C(=O)N2CCN(C(=O)c3cccc(F)c3)CC2)cc1 | 3.8 | 0.41
